The target of one assay is T1, human LXRα (Homo sapiens, UniProt Q13133).
T1 construct: biotin (biotinylated; biotinylation tag not described); made in house; host or cells: E. coli
T1 sequence (Q13133 1-447): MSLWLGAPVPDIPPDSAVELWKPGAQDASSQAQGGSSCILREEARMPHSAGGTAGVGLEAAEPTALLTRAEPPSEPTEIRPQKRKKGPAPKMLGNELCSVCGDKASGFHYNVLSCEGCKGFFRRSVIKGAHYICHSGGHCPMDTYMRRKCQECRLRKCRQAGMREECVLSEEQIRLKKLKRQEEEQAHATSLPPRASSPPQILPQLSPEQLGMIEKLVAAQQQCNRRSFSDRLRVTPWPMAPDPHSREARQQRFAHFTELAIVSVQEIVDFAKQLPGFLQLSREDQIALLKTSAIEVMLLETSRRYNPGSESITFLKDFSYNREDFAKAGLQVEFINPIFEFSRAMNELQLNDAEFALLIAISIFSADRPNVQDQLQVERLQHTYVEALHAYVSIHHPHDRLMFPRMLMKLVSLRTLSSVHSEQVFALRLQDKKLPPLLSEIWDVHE
The assay is described as follows: Ligand-binding test procedure for human LXRα (3H T0901317 competition, flash plates). The settings on record: biotinylated hLXRα, tracer 3H T0901317. The method, boiled down: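 Competition binding of test ligands against 5 nM ³H tracer solution (pre-mix concentration) on biotinylated hLXRα from E. coli extract, captured on streptavidin flash plates (Bmax ~4000 cpm). Ligand dilution series made in DMSO. Incubated overnight at +4 °C; bound radioactivity counted after washing.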

Another assay deals with T2, human LXRβ (Homo sapiens, UniProt P55055).
T2 construct: biotin (biotinylated; biotinylation tag not described); made in house; host or cells: E. coli
T2 sequence (P55055 1-460): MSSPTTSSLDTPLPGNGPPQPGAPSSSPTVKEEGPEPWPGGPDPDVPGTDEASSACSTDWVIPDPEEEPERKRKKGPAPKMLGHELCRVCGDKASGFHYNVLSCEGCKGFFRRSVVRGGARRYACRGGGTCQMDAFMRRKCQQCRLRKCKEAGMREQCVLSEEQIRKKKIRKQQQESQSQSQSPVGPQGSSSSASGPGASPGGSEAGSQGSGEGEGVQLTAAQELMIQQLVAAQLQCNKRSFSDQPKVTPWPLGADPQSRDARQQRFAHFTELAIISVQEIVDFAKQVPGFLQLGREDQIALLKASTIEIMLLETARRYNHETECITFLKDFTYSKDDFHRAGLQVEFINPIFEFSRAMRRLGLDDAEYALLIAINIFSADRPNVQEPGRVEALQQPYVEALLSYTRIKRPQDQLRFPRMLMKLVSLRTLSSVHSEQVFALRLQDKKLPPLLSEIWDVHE
Description: Ligand-binding test procedure for human LXRβ (3H T0901317 competition, flash plates). The conditions noted are these: for Binding ratio a/b: IC50 (μM) LXRα binding/IC50 (μM) LXRβ binding; for pIC50: biotinylated hLXRβ, tracer 3H T0901317.

The next assay has as its system ABCA1 gene. Description: Quantitative analysis of ABCA1 gene regulation in THP-1 cells (real-time RT-PCR). The assay is classed as cell-based, human. The settings on record: differentiated THP-1 cells, ABCA1 mRNA, 18 hrs; for pEC50: Homo sapiens; for THP cells ABCA1 Ag. (%): LXR agonist reference at 1.0 uM as positive control. As for the experimental part:
Quantitative Analysis of ABCA1 Gene Regulation in THP-1 Cells. […] Materials and Methods Cell culture: The THP-1 monocytic cell line (ATCC # TIB-202) was obtained from American Type Culture Collection (Manassas, Va.) and cultured in RPMI 1640 medium (Gibco, Carlsbad, Calif.) containing 10% FBS, 2 mM L-glutamine, and 55 uM beta-Mercaptoethanol (BME). […] Louis, Mo.) for three days to induce differentiation into adherent macrophages. Differentiated THP-1 cells were treated with test compounds or ligands dissolved in DMSO (Sigma, D-8779) in culture medium lacking phorbal ester. […] L., J. Med. Chem. (2000), 45:1963-1966.). Results of antagonist analysis are expressed as % antagonism and IC50 (in μM).
A general note: In qPCR the cycle at which signal appears reflects the starting amount.

pEC50, pIC50: −log10 of the molar value. Where only a bound is given, the exact number is not on record here.

For orientation: pIC50 means −log10 of the IC50, conventionally taken in molar units. What is called pEC50 is −log10 of the EC50, conventionally taken in molar units. Take `O=C(O)Cc1cccc2c(NCc3cccc(-c4ccnc5c(C(F)(F)F)cccc45)c3)cccc12` [Example 1, [5-({3-[8-(Trifluoromethyl)quinolin-4-yl]benzyl}amino)-1-naphthyl]acetic acid]: the pIC50 at human LXRα is 6.13. Moreover, at human LXRβ, the Binding ratio a/b is 48 and the pIC50 is 7.82. For the same molecule, in the assay with ABCA1 gene, the pEC50 is 5.42 and the “THP cells ABCA1 Ag. (%)” value was found to be 91.15%.

Consider `O=C(O)Cc1cccc2c(NCc3cncc(-c4c(Cc5ccccc5)cnc5c(C(F)(F)F)cccc45)c3)cccc12` [Example 3, {5-[({5-[3-Benzyl-8-(trifluoromethyl)quinolin-4-yl]pyridin-3-yl}methyl)amino]-1-naphthyl}acetic acid], for which the pIC50 on human LXRα is 6.02. On human LXRβ, the Binding ratio a/b is 32 and the pIC50 was 7.52. Also, in the assay on ABCA1 gene, the pEC50 is 5.32 and the “THP cells ABCA1 Ag. (%)” value came out at 69.1%.

On human LXRα, `O=C(O)Cc1cccc2c(OCc3cccc(-c4ccnc5c(C(F)(F)F)cccc45)c3)cccc12` [Example 5, [5-({3-[8-(Trifluoromethyl)quinolin-4-yl]benzyl}oxy)-1-naphthyl]acetic acid] had a pIC50 of 6.11. In addition, at human LXRβ, the Binding ratio a/b stood at 30 and the pIC50 is 7.59. Besides, in the assay on ABCA1 gene, the pEC50 is 5.47 and the “THP cells ABCA1 Ag. (%)” value is recorded as 69.4%.

For `Cc1cnc2c(C(F)(F)F)cccc2c1-c1cccc(COc2cccc3c(CC(=O)O)cccc23)c1` [Example 9], on human LXRα, the pIC50 was 6.53. In addition, on human LXRβ, the Binding ratio a/b is 22 and the pIC50 was 7.89. In the assay on ABCA1 gene, the pEC50 is 5.95 and the “THP cells ABCA1 Ag. (%)” value was found to be 122.6%.

`Cc1cnc2c(C(F)(F)F)cccc2c1-c1cccc(CNc2cccc3c(CC(=O)O)cccc23)c1` [Example 13, [5-({3-[3-methyl-8-(trifluoromethyl)quinolin-4-yl]benzyl}amino)-1-naphthyl]acetic acid] had a pIC50 at human LXRα of 6.68. In addition, at human LXRβ, the Binding ratio a/b is reported as 22 and the pIC50 is 8.00. For the same molecule, in the assay with ABCA1 gene, the pEC50 is 5.58 and the “THP cells ABCA1 Ag. (%)” value is given as 107.8%.

As to `Cc1cnc2c(C(F)(F)F)cccc2c1-c1cncc(CNc2cccc3c(CC(=O)O)cccc23)c1` [Example 119, {5-[({5-[3-methyl-8-(trifluoromethyl)quinolin-4-yl]pyridin-3-yl}methyl)amino]-1-naphthyl}acetic acid], the figures for the pIC50 on human LXRα and at human LXRβ were below 6.00 and 5.14, respectively.

With `O=C(O)Cc1ccc(NCc2cncc(-c3ccnc4c(C(F)(F)F)cccc34)c2)cc1` [Example 120, {4-[({5-[8-(trifluoromethyl)quinolin-4-yl]pyridin-3-yl}methyl)amino]phenyl}acetic acid], the negative-log IC50 (pIC50) on human LXRα and on human LXRβ was below 6.00 each time.

For `O=C(O)c1cnc(Oc2cccc(-c3c(Cc4ccccc4)cnc4c(C(F)(F)F)cccc34)c2)cn1` [Example 121, 5-{3-[3-Benzyl-8-(trifluoromethyl)quinolin-4-yl]phenoxy}pyrazine-2-carboxylic acid], the pIC50 on human LXRα was 5.77; on human LXRβ, 5.64. Further, on human LXRβ, the Binding ratio a/b is recorded as 1.

`O=C(O)c1cc(Br)cc(Oc2cccc(-c3c(Cc4ccccc4)cnc4c(Cl)cccc34)c2)c1` [Example 122, 3-[3-(3-Benzyl-8-chloroquinolin-4-yl)phenoxy]-5-bromobenzoic acid] showed a negative logarithm of the IC50 (pIC50) on human LXRα of 5.82. Besides, on human LXRβ, the Binding ratio a/b was 2 and the pIC50 is 6.11.

For the molecule `O=C(O)c1cc(F)cc(Oc2cccc(-c3c(Cc4ccccc4)cnc4c(Cl)cccc34)c2)c1` [Example 123, 3-[3-(3-Benzyl-8-chloroquinolin-4-yl)phenoxy]-5-fluorobenzoic acid], the pIC50 at human LXRα is 6.14. On human LXRβ, the Binding ratio a/b was 2 and the pIC50 was 6.32.

For `O=C(O)c1cccc(Oc2cccc(-c3c(Cc4ccccc4)cnc4c(Cl)cccc34)c2)c1` [Example 125, 3-[3-(3-Benzyl-8-chloroquinolin-4-yl)phenoxy]benzoic acid], the pIC50 on human LXRα was 6.57; on human LXRβ, 6.64. For the same molecule, the Binding ratio a/b on human LXRβ was 1.

Regarding `O=C(O)c1cccc(Oc2cccc(-c3c(Cc4ccccc4)cnc4c(C(F)(F)F)cccc34)c2)c1` [Example 126, 3-{3-[3-Benzyl-8-(trifluoromethyl)quinolin-4-yl]phenoxy}benzoic acid], the pIC50 on human LXRα is 6.62. For the same molecule, on human LXRβ, the Binding ratio a/b amounted to 2 and the pIC50 is 6.87.

Consider `O=C(O)c1ccc(Cn2ccc3c(-c4c(Cc5ccccc5)cnc5c(C(F)(F)F)cccc45)cccc32)cc1` [Example 127, 4-({4-[3-Benzyl-8-(trifluoromethyl)quinolin-4-yl]-1H-indol-1-yl}methyl)benzoic acid], for which, on human LXRα, the pIC50 is 5.67. Moreover, at human LXRβ, the Binding ratio a/b came out at 1 and the pIC50 is 5.61.

At human LXRα, `Cc1cc(C(=O)O)ccc1C#Cc1cccc(-c2c(Cc3ccccc3)cnc3c(C(F)(F)F)cccc23)c1` [Example 128, 4-({3-[3-Benzyl-8-(trifluoromethyl)quinolin-4-yl]phenyl}ethynyl)-3-methylbenzoic acid] showed a pIC50 of 6.86. For the same molecule, on human LXRβ, the Binding ratio a/b stood at 7 and the pIC50 is 7.72.

Molecule `Cc1ccc(C(=O)O)cc1C#Cc1cccc(-c2c(Cc3ccccc3)cnc3c(C(F)(F)F)cccc23)c1` [Example 129, 3-({3-[3-Benzyl-8-(trifluoromethyl)quinolin-4-yl]phenyl}ethynyl)-4-methylbenzoic acid] had a pIC50 at human LXRα of 6.18. For the same molecule, on human LXRβ, the Binding ratio a/b was 1 and the pIC50 was 6.22.

Take `O=C(O)c1cccc(-c2cccc(-c3c(Cc4ccccc4)cnc4c(C(F)(F)F)cccc34)c2)c1` [Example 130, 3′-[3-Benzyl-8-(trifluoromethyl)quinolin-4-yl]biphenyl-3-carboxylic acid]: the pIC50 is 5.88 on human LXRα and 5.62 on human LXRβ.

In the case of `COc1ccc(C(=O)O)cc1C#Cc1cccc(-c2c(Cc3ccccc3)cnc3c(C(F)(F)F)cccc23)c1` [Example 131, 3-({3-[3-Benzyl-8-(trifluoromethyl)quinolin-4-yl]phenyl}ethynyl)-4-methoxybenzoic acid], the pIC50 at human LXRα was 5.58; on human LXRβ it was 5.83. Also, the Binding ratio a/b on human LXRβ is recorded as 2.

The values are drawn from patent publication US20090069373A1, “Quinoline Acids” (Wyeth, priority 2007, published 2009).
